Reference: patent US20140045908A1, “HSP90 INHIBITORY COMPOUNDS IN TREATING JAK/STAT SIGNALING-MEDIATED CANCERS” (SYNTA PHARMACEUTICALS CORP., priority 2011, published 2014)

What was measured:
[1] = test system: JAK2 dependent signaling in HEL92.1.7 cells; assay: Western blot of JAK/STAT signaling in HEL92.1.7 cells; type: cell-based, human
Method: FIG. 2 compares the more durable ganetespib durable inhibition of JAK/STAT signaling to P6. HEL92.1.7 cells were cultured in the presence of 250 nM Ganetespib or 1000 nM P6 and harvested at the indicated time points. The levels of JAK2, phosphorylated and total STAT3 and STAT5, phospho-AKT, phospho-ERK and GAPDH were determined by western blot.
(§1) Cells were disrupted in lysis buffer (CST) and solubilized in 2% SDS. Xenograft tumors (average volume of 100-200 mm3) were excised, cut in half, and flash frozen in liquid nitrogen. Each tumor fragment was lysed in 0.5 mL of lysis buffer using a FastPrep-24 homogenizer and Lysing Matrix A (MP Biomedicals, Solon, Ohio, USA) and lysates clarified by centrifugation. Equal amounts of proteins were resolved by SDS-PAGE and immunoblotted with indicated antibodies. The antigen-antibody complex was visualized and quantitated using an Odyssey system (LI-COR, Lincoln, Nebr., USA).

[2] = test system: JAK/STAT signaling in SET-2 cells; assay: Western blot of JAK/STAT signaling in SET-2 cells; type: cell-based, human; settings: 24 h
Method: SET-2 cells were dosed with the indicated concentrations of ganetespib or 17-AAG for 24 h and analyzed to determine JAK/STAT protein and target levels using the antibodies indicated.
as §1

[3] = test system: JAK2/STAT signaling in NCI-H1975 cells; assay: Western blot of JAK/STAT and Hsp90 client proteins in NCI-H1975 cells; type: cell-based, human; settings: 24 h
Method: NCI-H1975 cells were dosed with the indicated concentrations of ganetespib for 24 h and their cell lysates analyzed to determine JAK/STAT and Hsp90 client protein levels using the antibodies indicated.
as §1

[4] = test system: JAK2/STAT3 signaling in HCC827 cells; assay: Western blot of constitutive and IL-6 induced STAT3 activity in HCC827 cells; type: cell-based, human
Method: HCC827 lung cancer cells were treated with increasing concentrations of ganetespib or P6 for 24 h followed by a 15 min stimulation with or without 50 ng/ml human recombinant IL-6. The levels of JAK2, total and phospho-STAT3, and PIM2 were analyzed by western blot. GAPDH is included as a loading control.
as §1

HEL92.1.7 cells = assay: Flow cytometry cell cycle analysis; type: cell-based, human
Method: HEL92.1.7 cells were plated at 0.5×10^6 cells/mL and treated as indicated. Cells were harvested and stained with propidium iodide using the BD Cycle TEST PLUS Reagent Kit (BD Biosciences, San Jose, Calif., USA) according to the manufacturer's instructions. Twenty thousand cells were analyzed for their DNA content using a FACS Caliber cytometer (BD Biosciences).

[5] = test system: Cdk1, phospho-Chk2, cyclins in HEL92.1.7 cells; assay: Western blot of cell cycle proteins in HEL92.1.7 cells; type: cell-based, human
Method: Cells were harvested at the indicated time points and the levels of total and phospho-Cdk1, phospho-Chk2 and GAPDH analyzed by western blot.
FIG. 12 illustrates the effects of ganetespib on JAK/STAT and cell cycle protein expression. HEL92.1.7 cells were treated with 100 nM ganetespib and subject to western blot to determine the levels of Cdk1, cyclin B1, cyclin A1, JAK2, total and phospho-STAT3, and GAPDH at hourly intervals over an 11 h time course.
as §1

MV4-11 xenografts = assay: MV4-11 acute myeloid leukemia xenograft model; type: in vivo, SCID mice
Method: Mice bearing established MV4-11 xenografts (100-200 mm3, n=8 mice/group) were i.v. dosed (arrowheads) with ganetespib at either 25 or 150 mg/kg once weekly for 3 weeks, or at the HNSTD of 25 mg/kg five-times per week, as indicated. % T/C values are indicated to the right of each growth curve and the error bars are the s.e.m.
Eight-week-old female immunodeficient CB-17/Icr-Prkdcscid/Crl (SCID) mice (Charles River Laboratories, Wilmington, Mass.) were maintained in a pathogen-free environment, and all in vivo procedures were approved by the Synta Pharmaceuticals Corp. Institutional Animal Care and Use Committee. For the MV4-11 model, tumor cells were subcutaneously implanted in SCID mice as previously described (34). Tumor volumes (V) were calculated by caliper measurements of the width (W), length (L), and thickness (T) of each tumor using the formula: V=0.5236 (LWT).
Animals with 100-200 mm^3 tumors were then randomized into treatment groups of 8 and i.v. dosed via the tail vein at 10 mL/kg body weight with either vehicle or ganetespib formulated in 10/18 DRD (10% DMSO, 18% Cremophor RH 40, 3.6% dextrose, 68.4% water). Tumor growth inhibition was monitored by tumor volume measurements twice weekly. As a measurement of in vivo efficacy, the % T/C value was determined from the change in average tumor volumes of each treated group relative to the vehicle-treated or itself in the case of tumor regression. Statistical significance was determined using a Kruskal-Wallis one-way ANOVA followed by the Tukey Test multiple comparison procedure.
(§2) For both models, studies were conducted at the highest non-severely toxic doses (NHSTDs) of 150 mg/kg ganetespib one-time per week or 25 mg/kg ganetespib 5×/week for 3 weeks based on prior tolerability studies conducted in non-tumor bearing mice.

[6] = test system: phospho-STAT5 and Cdk1 in MV4-11 tumors; assay: Pharmacodynamic analysis of MV4-11 xenograft tumors (western blot); type: in vivo, SCID mice
Method: SCID mice bearing MV4-11 tumors (n=4 mice/group) were treated with vehicle or ganetespib at either 25 mg/kg or 150 mg/kg at the indicated time points between 6 h and 144 h (6 days). Tumors were resected and the levels of p-STATS, Cdk1, Hsp70 and GAPDH were determined by western blot.
as §1
To determine whether these tumor responses correlated with target modulation in vivo, additional mice bearing MV4-11 xenografts were treated with a single dose of vehicle alone or ganetespib at 25 or 150 mg/kg. Tumors were harvested between 6 and 144 hours later and pharmacodynamic analysis was performed by examining the expression levels of phospho-STAT5, Cdk1 and Hsp70 (FIG. 17). In accord with the in vivo tumor growth data, dose-dependent effects on the duration of target inhibition within the tumors were observed. […] While the relatively quick recovery of STAT5 activation should have allowed the tumor to restart growth, the more durable suppression of the cell cycle regulators appeared to have kept the growth of the tumors arrested until the next drug dosing.

[7] = Tolerability studies in non-tumor bearing mice; type: in vivo; settings: i.v.
Method: as §2

[8] = 24 h, absence of external ligand

CC(C)c1cc(-c2nnc(O)n2-c2ccc3c(ccn3C)c2)c(O)cc1O [ganetespib, 3-(2,4-dihydroxy-5-isopropyl-phenyl)-4-(1-methyl-indol-5-yl)-5-hydroxy-[1,2,4] triazole]
JAK2 and phospho-AKT protein levels [1]: targeted loss of JAK2 and phospho-AKT protein levels
duration of STAT signaling suppression compared to P6 [1]: suppressed STAT signaling longer
potency compared to P6, JAK/STAT inhibitory activity [1]: at least four-fold more potent
JAK2 dependent signaling (phospho-STAT3, phospho-STAT5, ERK signaling) ([1]; 250 nM ganetespib or 1000 nM P6): blocked JAK2 dependent signaling
concentration able to destabilize JAK2 sufficiently to result in loss of activated (phosphorylated) STAT3 and STAT5 expression [2]: 50 nM
AKT and GSK3β activity [3]: Inactivation of AKT and GSK3β
EGFR expression [3]: dose dependent decrease in EGFR expression
JAK2 and phosphorylated STAT3 levels [3]: potent degradation of JAK2 and loss of phosphorylated STAT3 in a dose-dependent manner
levels of phosphorylated BAD [3]: concomitant reduction in the levels of phosphorylated BAD
JAK2 expression [4, 8]: dose-dependent decrease in JAK2 expression
constitutive STAT3 activity [4, 8]: loss of STAT3 activity
JAK/STAT signaling stimulated by exogenous IL-6 ([4]; 24 h then 15 min 50 ng/ml IL-6): blocked JAK/STAT signaling stimulation
cell cycle distribution (HEL92.1.7 cells): temporal G1 and G2/M arrest in HEL92.1.7 cells, with concomitant loss of S phase
level of phospho-Chk2 [5]: reduced
cyclins A1 and B1 levels ([5]; 100 nM, 11 h time course): temporal accumulation of cyclins A1 and B1
Cdk1 protein expression ([5]; ganetespib 250 nM or P6 1000 nM, 24-48 h): Reduced protein levels
tumor regression (MV4-11 xenografts; 25 mg/kg i.v. 5×/week for 3 weeks): 84%
tumor growth inhibition (MV4-11 xenografts; 25 or 150 mg/kg i.v. once weekly for 3 weeks): significant and dose dependent tumor growth inhibition
time tumor growth stayed suppressed once treatment was discontinued (MV4-11 xenografts; both dosing regimens): up to a week or more
time by which STAT5 activity recovered in tumors ([6]; single 25 mg/kg dose): ≤ 24 h
time of loss of Cdk1 in tumors ([6]; single 25 mg/kg dose): 24 h
time through which Cdk1 expression remained suppressed in tumors ([6]; single 25 mg/kg dose): at least 48 hours
time to potent inhibition of STAT5 activity in tumors ([6]; single 25 mg/kg dose): ≤ 6 h
duration of repressed STAT5 activation and suppressed Cdk1 expression in tumors ([6]; single 150 mg/kg dose): more than three days
highest non-severely toxic dose ([7]; 5×/week for 3 weeks): 25 mg/kg
highest non-severely toxic dose ([7]; one-time per week for 3 weeks): 150 mg/kg
